Data on 16 compounds can be found in patent US5445951A, “Regioselective enzymatic deacylation of sucrose esters in anhydrous organic media” (priority 1993, dated 1995).

Like-named read-outs stand apart in the source and are kept apart here.

For series [1] the following is noted: n-octanol/water, cited from earlier work.
Series [2] relates to lipase AY 30. The series is described as follows: Effect of the solvent on lipase AY 30 SOA deacetylation. Conditions: lipase AY 30, solvent as labelled, 24 hrs. Format: biochemical, Candida cylindracea. How it is done:
(§1) Identical enzyme catalyzed SOA deacetylations were run in numerous anhydrous solvents. After 24 hrs incubation an aliquot was analyzed by HPLC.
(§2) Enzyme and Solvent Screening for SOA Deacetylation. A scintillation vial was charged successively with 100 mg of powdered enzyme as received or prepared as described and 1.0 ml of 20 mM sucrose octaacetate (SOA) dissolved in an organic solvent. Following a 5 sec sonication, the vial was incubated in a controlled-temperature shaker at 45° C. and 300 RPM for 24 hrs. A 200 μl aliquot of the reaction mixture was withdrawn and centrifuged. The supernatant was collected and evaporated under a stream of N2. The residue was reconstituted in 200 μl of acetonitrile and 10 μl of this solution was analyzed by HPLC.

The target of series [3] is T1, alcalase (Bacillus licheniformis, UniProt P00780).
T1 construct: purchased Novo Nordisk (gift)
T1 sequence (P00780 106-379): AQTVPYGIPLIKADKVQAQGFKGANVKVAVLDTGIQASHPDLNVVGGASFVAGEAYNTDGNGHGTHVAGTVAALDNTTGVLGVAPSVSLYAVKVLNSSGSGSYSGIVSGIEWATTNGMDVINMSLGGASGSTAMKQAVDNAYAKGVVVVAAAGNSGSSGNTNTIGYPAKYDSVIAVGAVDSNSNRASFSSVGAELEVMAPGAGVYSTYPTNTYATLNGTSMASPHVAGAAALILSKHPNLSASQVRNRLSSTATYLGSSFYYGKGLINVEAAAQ
The series is described as follows: Solvent effect on alcalase catalyzed deacetylation of SOA. Format: biochemical. Conditions: 24 hrs; for SheptaA: total of 1'-OH and 6'-OH heptaacetates; for SOA / ShexaA: solvent as labelled. How it is done: as §1
Enzyme Precipitation. Alcalase was prepared by adding 37.5 ml cold acetone (-20° C.) to 25 ml of alcalase solution as supplied by Novo. The aqueous acetone was decanted and the residue dissolved in 25 ml of pH 9.0 glycine--NaOH buffer. The pH of this solution was adjusted to 9.0 with a few drops of dilute NaOH solution. Cold acetone (37.5 ml at -20° C.) was added to the buffered alcalase solution and the precipitate collected by filtration on a medium porosity glass funnel and dried overnight at 2 millitorr. The resulting pellet was ground to a fine powder and stored at 4° C. over saturated aqueous potassium carbonate (RH: 43%) for 24 hrs.
as §2

For series [4], the system named is lipase AP 12. The series is described as follows: Solvent effect on lipase AP 12 catalyzed deacetylation of SOA. Format: biochemical, Aspergillus niger. Conditions: lipase AP 12, solvent as labelled, 24 hrs. As for the experimental part:
as §1
(§3) The pH of commercial powdered enzymes was adjusted in the following way: The enzyme (3 g) was dissolved in 25 ml of an appropriate buffer and the pH adjusted with dilute NaOH or citric/phosphoric acid solution. Cold acetone (37.5 ml at -20° C.) was added and the precipitate collected on a medium porosity glass funnel and dried overnight at 2 millitorr. The protein pellet was ground to a fine powder and equilibrated at 4° C. over saturated aqueous potassium carbonate (RH: 43%) for 24 hrs.
as §2

The subject of series [5] is proleather. The series is described as follows: Solvent effect on proleather catalyzed deacetylation of SOA. Format: biochemical, Bacillus subtilis. Conditions: 24 hrs; for SheptaA: total of 1'-OH and 6'-OH heptaacetates; for SOA / ShexaA: solvent as labelled. How it is done:
as §1, §3, §2

The subject of series [6] is alcalase deposited on Hyflo Super Cell. The series is described as follows: Solvent effect on alcalase deposited on Hyflo Super Cell catalyzed deacetylation of SOA. Format: biochemical, Bacillus licheniformis. Conditions: immobilized alcalase, 4 hour incubation; for SheptaA: total of 1'-OH and 6'-OH heptaacetates. How it is done:
(§4) Alcalase and lipase AY 30 were deposited on Hyflo Super Cell and used as catalysts for SOA deacetylation reactions in several anhydrous solvents.
(§5) Enzyme immobilization. The pH of a solution of 900 mg of buffered alcalase in 18 ml of water was adjusted to 9.0 with dilute NaOH. Hyflo super cell (6 g) was added and the slurry thoroughly mixed. […] Lipase AY 30 was immobilized in the same manner except that the protein solution was adjusted to pH 7.0 with sodium phosphate.
Enzyme and Solvent Screening for SOA Deacetylation. A scintillation vial was charged successively with 100 mg of powdered enzyme as received or prepared as described and 1.0 ml of 20 mM sucrose octaacetate (SOA) dissolved in an organic solvent. […] A 200 μl aliquot of the reaction mixture was withdrawn and centrifuged. The supernatant was collected and evaporated under a stream of N2. The residue was reconstituted in 200 μl of acetonitrile and 10 μl of this solution was analyzed by HPLC.

For series [7], the system named is lipase AY 30 deposited on Hyflo Super Cell. Put plainly: Solvent effect on lipase AY 30 deposited on Hyflo Super Cell catalyzed deacetylation of SOA. Conditions: immobilized lipase AY 30, 24 hrs. Format: biochemical, Candida cylindracea. How it is done:
as §4, §5, §2

Series [8] deals with lipase AY 30. Put plainly: Effect of the solvent on lipase AY 30 catalyzed deacylation of SOP. For SheptaP's ([…]): HPLC peak 8.2 min. Conditions: for ShexaP (4.2 min) / SheptaP's (8.9 min) / SheptaP's (9.4 min) / SheptaP's ([…]): lipase AY 30, 24 hrs; for ShexaP (4.2 min): HPLC peak 4.2 min; for SheptaP's (8.9 min): HPLC peak 8.9 min; for SheptaP's (9.4 min): HPLC peak 9.4 min; for SheptaP's ([…]): HPLC peak […]; for SOA: lipase AY 30, solvent as labelled, 200 mM butanol, 24 hrs, peak 21.4 min. Format: biochemical, Candida cylindracea. As for the experimental part:
Identical SOP deacylations were performed with lipase AY 30 or protease type XXIII in numerous anhydrous organic solvents, as shown in Tables 12 and 13.
as §2, with “Solvent” for “Enzyme and Solvent”, “screening” for “Screening”, “SOP deacylation.” for “SOA Deacetylation.”, “lipase AY 30” for “powdered enzyme as received”, “protease type XXIII” for “prepared”, “octapropionate (SOP) and 200mM butanol” for “octaacetate (SOA)”

On to `CCCCCOCCCCC` [dipentyl ether], for which the log P (usually the decadic logarithm of the partition coefficient of the neutral form, usually between octanol and water) in series [1] (from Laane et al.) was 3.9.

As for `c1ccccc1` [benzene], the SOA in series [2] was 97.9%; in series [3], 93.3%; in series [4] it was 96.6%; in series [5], 84.8%; in series [6], 97.9%; in series [7] it was 97.9%. Also, the SheptaA in series [2] turned out to be 1.7%; in series [3] it was 6.7%; in series [4] it was 3.4%; in series [5] it was 13.9%; in series [6], 2.1%; in series [7], 2.1%. Further, the ShexaA came to 0.4% in series [2]; 0% in series [3]; 0% in series [4]; 1.4% in series [5]; 0% in series [6].

Take `CCCCC(=O)CC` [3-heptanone]: in series [2], the SOA was 85.1% and the SheptaA came to 14.9%. In series [8], the “ShexaP (4.2 min)” value was 0%, the “SheptaP's (8.9 min)” value is 0.8%, the “SheptaP's (9.4 min)” value turned out to be 2.9% and the “SheptaP's ([…])” value is on record as 3.3%. In series [8], this compound registered an SOA of 93.0%. In addition, the “log P” value in series [1] (from Laane et al.) is on record as 1.8.

As to `CCCCCCCCO` [octanol], in series [8], the “ShexaP (4.2 min)” value stood at 0%, the “SheptaP's (8.9 min)” value is on record as 0%, the “SheptaP's (9.4 min)” value was 1.1% and the “SheptaP's ([…])” value is reported as 1.8%. For the same compound, the SOA in series [8] was determined as 97.1%. For the same compound, in series [1], the “log P” value was 3.0.

In the case of `CCC(C)(C)OC` [t-amyl methyl ether], in series [2], the SOA amounted to 45%, the SheptaA was found to be 37.1% and the ShexaA was 17.9%. For the same compound, the “log P” value in series [1] (from Laane et al.) was 1.9.

Regarding `C1CCOC1` [THF, tetrahydrofuran], in series [2], the SOA is 98.7%, the SheptaA was determined as 1.3% and the ShexaA is 0%. In series [3], the SheptaA stood at 2.0%, the SOA was found to be 98.0% and the ShexaA came out at 0%. In series [4], the SOA came to 98.4%, the SheptaA was 1.6% and the ShexaA was found to be 0%. In series [5], this compound had a SheptaA of 2.6%, an SOA of 97.4% and a ShexaA of 0%. In series [6], the SOA amounted to 97.3%, the ShexaA amounted to 0% and the SheptaA worked out at 2.7%. Besides, in series [7], the SOA was determined as 98. % and the SheptaA was found to be 2.0%. Also, in series [8], the “ShexaP (4.2 min)” value stood at 0.3%, the “SheptaP's (8.9 min)” value was determined as 0%, the “SheptaP's (9.4 min)” value turned out to be 0.1% and the “SheptaP's ([…])” value came to 1.6%. Besides, the SOA in series [8] is on record as 98.0%.

As to `CCCCCC` [hexane], in series [8], the “ShexaP (4.2 min)” value was determined as 5.8%, the “SheptaP's (8.9 min)” value was found to be 0.6%, the “SheptaP's (9.4 min)” value was determined as 5.7% and the “SheptaP's ([…])” value is given as 8.6%. This compound registered an SOA in series [8] of 79.3%. The “log P” value in series [1] (from Laane et al.) was 3.5.

`C1CCCCC1` [cyclohexane]: in series [8], the “ShexaP (4.2 min)” value amounted to 2.8%, the “SheptaP's (8.9 min)” value came out at 0.4%, the “SheptaP's (9.4 min)” value amounted to 5.2% and the “SheptaP's ([…])” value is 5.6%. In series [8], the SOA was found to be 86%.

For `ClC(Cl)Cl` [chloroform], in series [2], the SOA was 86.7%, the SheptaA amounted to 11.6% and the ShexaA was 1.7%.

In series [6], `CC(=O)OC(C)(C)C` [t-butyl acetate] gave an SOA of 98.2%, a ShexaA of 0% and a SheptaA of 1.8%. Besides, the “log P” value in series [1] (from Laane et al.) is recorded as 1.7.

In series [2], `CCCCCCCO` [heptanol] displayed an SOA of 93.4%, a SheptaA of 6.0% and a ShexaA of 0.6%. In addition, in series [8], the “ShexaP (4.2 min)” value amounted to 0%, the “SheptaP's (8.9 min)” value was determined as 0%, the “SheptaP's (9.4 min)” value was determined as 0.7% and the “SheptaP's ([…])” value is 1.4%. In series [8], the SOA was 97.9%. In addition, in series [1] (from Laane et al.), the “log P” value is listed as 2.5.

In series [2], `Cc1ccccc1` [toluene] came in with an SOA of 78.7%, a SheptaA of 16.5% and a ShexaA of 4.8%. In series [3], this compound displayed a SheptaA of 6.0%, an SOA of 93.8% and a ShexaA of 0.2%. In series [4], the SOA is recorded as 94.2%, the SheptaA is reported as 5.8% and the ShexaA is 0%. In series [5], this compound came in with a SheptaA of 15.2%, an SOA of 82.8% and a ShexaA of 2.0%. Moreover, in series [6], the SOA was determined as 97.8%, the ShexaA is listed as 0% and the SheptaA was found to be 2.2%. In series [7], the SOA came to 94.5% and the SheptaA was 5.5%. In addition, in series [8], the “ShexaP (4.2 min)” value worked out at 0.2%, the “SheptaP's (8.9 min)” value is listed as 0%, the “SheptaP's (9.4 min)” value came to 1.2% and the “SheptaP's ([…])” value came to 1.3%. Besides, in series [8], the SOA is listed as 97.3%.

Consider `O=C1CCCCC1` [cyclohexanone], for which, in series [2], the SOA was 97.5%, the SheptaA is 2.5% and the ShexaA is on record as 0%. For the same compound, in series [8], the “ShexaP (4.2 min)” value is reported as 0%, the “SheptaP's (8.9 min)” value is given as 0%, the “SheptaP's (9.4 min)” value is given as 0.3% and the “SheptaP's ([…])” value was 0.9%. In addition, the SOA in series [8] was 98.8%. In addition, the “log P” value in series [1] (from Laane et al.) is reported as 0.96.

As for `CCCCCCC` [heptane], in series [8], the “ShexaP (4.2 min)” value was 6.6%, the “SheptaP's (8.9 min)” value was found to be 0.5%, the “SheptaP's (9.4 min)” value is 4.4% and the “SheptaP's ([…])” value worked out at 8.9%. In series [8], this compound displayed an SOA of 79.6%. For the same compound, the “log P” value in series [1] (from Laane et al.) was 4.0.

Take `CCOC(C)(C)C` [t-butyl ethyl ether]: in series [2], the SOA is recorded as 40.8%, the SheptaA stood at 38.1% and the ShexaA is given as 21.1%. Besides, in series [5], the SheptaA is 2.8% and the ShexaA is 0%. Further, the “log P” value in series [1] (from Laane et al.) was 1.9.

Take `CCCCCCCC` [octane]: in series [8], the “ShexaP (4.2 min)” value was 7.7%, the “SheptaP's (8.9 min)” value is on record as 0.5%, the “SheptaP's (9.4 min)” value is reported as 2.9% and the “SheptaP's ([…])” value is given as 8.9%. In addition, the SOA in series [8] came to 80.0%. For the same compound, the “log P” value in series [1] (from Laane et al.) is 5.0.
